Reference: paper PMC4774972, “Activity and Predicted Nephrotoxicity of Synthetic Antibiotics Based on Polymyxin B” (Journal of Medicinal Chemistry, 2016)
Values after ≈ are worked out from the molar mass of the structure shown. Where two headings read alike, the source gives them in different places. Bridge positions count the residues as written; N and C are the ends. Square brackets hold non-standard residues; d marks the D form. Peptide text beside a SMILES is read from it. * marks the point of attachment. ξ: configuration not given here. ξGly(octyl) = CCCCCCCCC(N)C(=O)O; dDab = NCC[C@@H](N)C(=O)O; hSer = N[C@@H](CCO)C(=O)O; Octanoyl = CCCCCCCC(=O)*; Dab = NCC[C@H](N)C(=O)O

Experiments:
[1] = system: A. baumannii CI Ptyela 100734512:2, PmxR; conditions: MIC A. baumannii CI Ptyela 100734512:2, PmxR (µg/mL)
[2] = system: K. pneumoniae CI 138-16357-20362, PmxR; conditions: MIC K. pneumoniae CI 138-16357-20362, PmxR (µg/mL)
[3] = system: K. pneumoniae CI Koprana 100650661:1, PmxR; conditions: MIC K. pneumoniae CI Koprana 100650661:1, PmxR (µg/mL)
[4] = system: P. aeruginosa FADDI-PA070, PmxR; conditions: MIC P. aeruginosa FADDI-PA070, PmxR (µg/mL)
[5] = system: P. aeruginosa PA9704, PmxR; conditions: MIC P. aeruginosa PA9704, PmxR (µg/mL)
[6] = system: S. aureus ATCC 25923, MSSA; conditions: MIC S. aureus ATCC 25923, MSSA (µg/mL)
HepG2 = conditions: CC50 HepG2 (µM)
[7] = system: K. pneumoniae CI 138-16357-20362, PmxR; assay: microbe, parasite or virus in culture; assay type: cell-based, Klebsiella pneumoniae
[8] = system: K. pneumoniae CI Koprana 100650661:1, PmxR; assay: microbe, parasite or virus in culture; assay type: cell-based, Klebsiella pneumoniae
[9] = system: panel of predominantly G-ve bacteria
K. pneumoniae ATCC 13883 [10] = conditions: MIC K. pneumoniae ATCC 13883 (µg/mL)
A. baumannii ATCC 19606 [11] = assay type: cell-based, Acinetobacter baumannii; conditions: ATCC 19606, 18 h
Protocol: (§1) Bacteria were either obtained from American Type Culture Collection (ATCC; Manassas, VA, USA) or independent academic clinical isolate collections, as listed in Table S2. Bacteria were cultured in nutrient broth (NB; Bacto Laboratories, catalog no. 234000) or Muller Hinton broth (MHB; Bacto Laboratories, catalog no. 211443) at 37 °C overnight with shaking (∼180 rpm). A sample of each culture was then diluted 50-fold in fresh MHB and incubated at 37 °C for 1.5–3 h with shaking (∼180 rpm). Compound stock solutions were prepared as 0.64 or 2.56 mg/mL in water. The compounds, at twice the final desired concentration, were serially diluted 2-fold across the wells of 96-well plates (Polystyrene, Corning, catalogue No. 3370). Mid log phase bacterial cultures (after 1.5–3 h incubation) were diluted to a final concentration of 5 × 10^5 colony forming units (CFU)/mL, and 50 μL was added to each well giving a final compound concentration range of 32 μg/mL to 0.015 μg/mL (128–0.06 μg/mL for colistin and polymyxin B against the polymyxin resistant clinical isolates). MICs were determined visually after 18 h of incubation at 37 °C, with the MIC defined as the lowest compound concentration at which no bacterial growth was visible.
(§2) Table S2. Bacterial strains used for Minimum Inhibitory Concentration (MIC) […]
(§3) Organism Strain Strain description Strain Source
(§4) Escherichia coli ATCC 25922 FDA strain Seattle 1946 ATCC
(§5) Klebsiella pneumoniae ATCC 13883 Control strain ATCC
(§6) Klebsiella pneumoniae ATCC 700603 Multi-drug resistant ATCC
(§7) Klebsiella pneumoniae BAA-2146 Metallo-beta-lactamase- ATCC
(§8) Acinetobacter baumannii ATCC 19606 Type strain ATCC
(§9) Pseudomonas aeruginosa ATCC 27853 Type strain ATCC
(§10) Pseudomonas aeruginosa FADDI-PA070 Clinical isolate, Nation and Li labs, polymyxin resistant Monash University
(§11) Clinical isolate, Wang Hengzhuang, Pseudomonas aeruginosa PA9704 polymyxin resistant University Hospital of […]
(§12) Ptyela Clinical isolate, Ilias Karaiskos and Acinetobacter baumannii Carbapenem & Helen Giamarellou
(§13) Clinical isolate, Medicine, Hygeia
(§14) Klebsiella pneumoniae Koprana Carbapenem, & General Hospital, […]
(§15) Clinical isolate, (Instituto Dante […]
(§16) polymyxin resistant Cardiologia, São […]

[12] = system: P. aeruginosa FADDI-PA070, PmxR; assay type: cell-based, Pseudomonas aeruginosa
Protocol: as §1, §2, §3, §4, §5, §6, §7, §8, §9, §10, §11, §12, §13, §14, §15, §16

[13] = system: P. aeruginosa PA9704, PmxR; assay type: cell-based, Pseudomonas aeruginosa
Protocol: as §1, §2, §3, §4, §5, §6, §7, §8, §9, §10, §11, §12, §13, §14, §15, §16

[14] = system: A. baumannii CI Ptyela 100734512:2, PmxR; assay: microbe, parasite or virus in culture; assay type: cell-based, Acinetobacter baumannii
Protocol: as §1, §2, §3, §4, §5, §6, §7, §8, §9, §10, §11, §12, §13, §14, §15, §16

[15] = system: S. aureus ATCC 25923, MSSA; assay: microbe, parasite or virus in culture; assay type: cell-based, Staphylococcus aureus; conditions: ATCC 25923, 18 h
Protocol: as §1, §2, §3, §4, §5, §6, §7, §8, §9, §10, §11, §12, §13, §14, §15, §16

HepG2 cells = assay: Cytotoxicity assay (resazurin assay); assay type: cell-based, human; conditions: 4000 cells/well, 24 h incubation with compound, fluorescence 560/590
Protocol: Cytotoxicity to HEK293 and HepG2 cells was determined using the resazurin assay.[67],[68] […] Compounds were then added into each well. After 24 h incubation, 5 μM resazurin was added per well and incubated at 37 °C for 2 h. Fluorescence intensity was then read using a Polarstar Omega with excitation/emission 560/590. The data were then analyzed using GraphPad Prism 6 software. CC50 values were determined using GraphPad Prism 6 software (Inc. La Jolla, CA).

[16] = system: primary human renal proximal tubule epithelial (hPT) cells; assay: Nephrotoxicity assay, GGT release; assay type: cell-based
Excerpt: Primary human renal proximal tubule epithelial (hPT) cells were isolated and used for in vitro prediction of drug-induced nephrotoxicity[63],[64],[69] by measuring the release of metabolism enzymes, LDH and GGT, as previously described.[70]

A. baumannii ATCC 19606 [17] = conditions: MIC A. baumannii ATCC 19606 (µg/mL)
E. coli ATCC 25922 [18] = conditions: MIC E. coli ATCC 25922 (µg/mL)
[19] = system: K. pneumoniae ATCC 700603, MDR; conditions: MIC K. pneumoniae ATCC 700603, MDR(µg/mL)
[20] = system: K. pneumoniae ATTC BAA-2146, NDM-1 pos; conditions: MIC K. pneumoniae ATTC BAA-2146, NDM-1 pos (µg/mL)
P. aeruginosa ATCC 27853 [21] = conditions: MIC P. aeruginosa ATCC 27853 (µg/mL)
E. coli ATCC 25922 [22] = assay: microbe, parasite or virus in culture; assay type: cell-based, Escherichia coli; conditions: ATCC 25922, 18 h
Protocol: as §1, §2, §3, §4, §5, §6, §7, §8, §9, §10, §11, §12, §13, §14, §15, §16

P. aeruginosa ATCC 27853 [23] = assay: microbe, parasite or virus in culture; assay type: cell-based, Pseudomonas aeruginosa; conditions: ATCC 27853, 18 h
Protocol: as §1, §2, §3, §4, §5, §6, §7, §8, §9, §10, §11, §12, §13, §14, §15, §16

K. pneumoniae ATCC 13883 [24] = assay: microbe, parasite or virus in culture; assay type: cell-based, Klebsiella pneumoniae; conditions: ATCC 13883, 18 h
[25] = carbapenem & polymyxin resistant clinical isolate, MHB, 5 × 10^5 CFU/mL, 18 h at 37 °C
[26] = polymyxin resistant clinical isolate, MHB, 5 × 10^5 CFU/mL, 18 h at 37 °C

SMILES	MIC [1] [µg/mL]	MIC [2] [µg/mL]	MIC [3] [µg/mL]	MIC [4] [µg/mL]	MIC [5] [µg/mL]	MIC [6] [µg/mL]	CC50 (HepG2) [µM]	MIC K. pneumoniae CI 138-16357-20362, PmxR [7, 25] [µg/mL]	MIC K. pneumoniae CI Koprana 100650661:1, PmxR [8, 25] [µg/mL]	MIC for most strains [9] [µg/mL]	MIC (K. pneumoniae ATCC 13883 [10]) [µg/mL]	MIC A. baumannii ATCC 19606 (A. baumannii ATCC 19606 [11])	MIC S. aureus ATCC 25923, MSSA [15] [µg/mL]	HepG2 - CC50 (HepG2 cells) [µM]	MIC (A. baumannii ATCC 19606 [17]) [µg/mL]	MIC (E. coli ATCC 25922 [18]) [µg/mL]	MIC E. coli ATCC 25922 (E. coli ATCC 25922 [22]) [µg/mL]	MIC P. aeruginosa FADDI-PA070, PmxR [12, 26] [µg/mL]	MIC P. aeruginosa PA9704, PmxR [13, 26] [µg/mL]	MIC A. baumannii CI Ptyela 100734512:2, PmxR [14, 25] [µg/mL]	also measured
CCCCCCCC(=O)N[C@@H](CCN)C(=O)N[C@H](C(=O)N[C@@H](CCN)C(=O)N[C@H]1CCNC(=O)[C@H]([C@@H](C)O)NC(=O)[C@H](CCN)NC(=O)[C@H](CCNC(=O)[C@@H](N)CCC(=O)O)NC(=O)[C@H](CC(C)C)NC(=O)[C@@H](Cc2ccccc2)NC(=O)[C@H](CCN)NC1=O)[C@@H](C)O [Compound 23] (Octanoyl-[Dab]T[Dab][Dab][Dab][dF]L[Dab](Glu)[Dab]T; lactam 4-C)	> 32	> 32	> 32	> 32	> 32	> 32	> 300	>32	>32	1 to 8											
CCCCCCCC(=O)N[C@@H](CCN)C(=O)N[C@H](C(=O)N[C@@H](CCN)C(=O)N[C@H]1CCNC(=O)[C@H]([C@@H](C)O)NC(=O)[C@H](CCN)NC(=O)[C@H](CCO)NC(=O)[C@H](CC(C)C)NC(=O)[C@@H](Cc2ccccc2)NC(=O)[C@H](CCN)NC1=O)[C@@H](C)O [Compound 24] (Octanoyl-[Dab]T[Dab][Dab][Dab][dF]L[hSer][Dab]T; lactam 4-C)	> 32	> 32	> 32	> 32	> 32	> 32	> 300	>32	>32	1 to 8	> 32										
CCCCCCCCC1NC(=O)[C@@H](Cc2ccccc2)NC(=O)[C@H](CCN)NC(=O)[C@@H](NC(=O)[C@H](CCN)NC(=O)[C@@H](NC(=O)[C@H](CCN)NC(=O)CCCCCCC)[C@@H](C)O)CCNC(=O)[C@H]([C@@H](C)O)NC(=O)[C@H](CCN)NC(=O)[C@H](CCN)NC1=O (stereo partly shown) [Compound 28] (Octanoyl-[Dab]T[Dab][Dab][Dab][dF][ξGly(octyl)][Dab][Dab]T; lactam 4-C)												1(1) μg/mL									
CCCCCCCC(=O)N[C@@H](CCN)C(=O)N[C@H](C(=O)NCC(=O)N[C@H]1CCNC(=O)[C@H]([C@@H](C)O)NC(=O)[C@H](CCN)NC(=O)[C@H](CCN)NC(=O)[C@H](CC(C)C)NC(=O)[C@@H](Cc2ccccc2)NC(=O)[C@H](CCN)NC1=O)[C@@H](C)O [Compound 38] (Octanoyl-[Dab]TG[Dab][Dab][dF]L[Dab][Dab]T; lactam 4-C)	> 32	> 32	> 32	> 32	> 32	> 64	> 300						>64	> 300							MIC P. aeruginosa FADDI-PA070, PmxR ([12]; FADDI-PA070, PmxR, 18 h): >32 µg/mL; MIC P. aeruginosa PA9704, PmxR ([13]; PA9704, PmxR, 18 h): >32 µg/mL; MIC A. baumannii CI Ptyela 100734512:2, PmxR ([14]; CI Ptyela 100734512:2, PmxR, 18 h): >32 µg/mL; MIC K. pneumoniae CI 138-16357-20362, PmxR ([7]; CI 138-16357-20362, PmxR, 18 h): >32 µg/mL; MIC K. pneumoniae CI Koprana 100650661:1, PmxR ([8]; CI Koprana 100650661:1, PmxR, 18 h): >32 µg/mL; GGT release CC50 [16]: >128 µg/mL; MIC among the reference strains ([9]; for most strains): 0.5 to 2 µg/mL
CCCCCCCC(=O)N[C@H](C(=O)NCC(=O)N[C@H]1CCNC(=O)[C@H]([C@@H](C)O)NC(=O)[C@H](CCN)NC(=O)[C@H](CCN)NC(=O)[C@H](CC(C)C)NC(=O)[C@@H](Cc2ccccc2)NC(=O)[C@H](CCN)NC1=O)[C@@H](C)O [Compound 39] (Octanoyl-TG[Dab][Dab][dF]L[Dab][Dab]T; lactam 3-C)	> 32	> 32	> 32	> 32	> 32	> 32	> 300	>32	>32		> 32	>32 µg/mL	>32	>300	> 32	4 (≈ 3.82 µM)	4 (≈ 3.82 µM)	>32	>32	>32	MIC [19]: > 32 µg/mL; MIC [20]: > 32 µg/mL; MIC (P. aeruginosa ATCC 27853 [21]): 16 µg/mL (≈ 15.3 µM); MIC P. aeruginosa ATCC 27853 (P. aeruginosa ATCC 27853 [23]): 16 µg/mL (≈ 15.3 µM); MIC K. pneumoniae ATCC 13883 (K. pneumoniae ATCC 13883 [24]): >32 µg/mL
CCCCCCCC(=O)N[C@H](CCN)C(=O)N[C@H](C(=O)NCC(=O)N[C@H]1CCNC(=O)[C@H]([C@@H](C)O)NC(=O)[C@H](CCN)NC(=O)[C@H](CCN)NC(=O)[C@H](CC(C)C)NC(=O)[C@@H](Cc2ccccc2)NC(=O)[C@H](CCN)NC1=O)[C@@H](C)O [Compound 40] (Octanoyl-[dDab]TG[Dab][Dab][dF]L[Dab][Dab]T; lactam 4-C)	> 32	> 32	> 32	> 32	> 32	> 64	> 300	>32	>32		> 32	>64 µg/mL	>64	>300	> 64	> 32	>32	>32	>32	>32	MIC K. pneumoniae ATCC 13883 (K. pneumoniae ATCC 13883 [24]): >32 µg/mL
